According to patent US10245275B2 (ViiV HEALTHCARE UK (NO.4) LIMITED, priority 2014, dated 2019):
Where two headings read alike, the source gives them in different places.

What was measured:
[1] = system: HIV-1 NL4-3 gag A364V virus; experiment: microbe, parasite or virus in culture; assay type: cell-based; details: for fold less potent than Compound 2 vs A364V: relative to Compound 2
Method in brief: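 Recombinant NL4-3 reporter virus with Renilla luciferase replacing part of nef, made by transfection of 293T cells. MT-2 cells infected for 4-5 days with serial inhibitor dilutions; antiviral activity quantified by luciferase activity.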

[2] = system: HIV-1 92UG029 (clade A virus); experiment: HIV cell culture assay, 92UG029 Gag/Pr recombinant virus in MT-2 cells; assay type: cell-based; details: for fold less potent than Compound 2 vs 92UG029: relative to Compound 2
Procedure: MT-2 cells and 293T cells were obtained from the NIH AIDS Research and Reference Reagent Program. MT-2 cells were propagated in RPMI 1640 media supplemented with 10% heat-inactivated fetal bovine serum, […]. The 293T cells were propagated in DMEM media supplemented with 10% heat-inactivated fetal bovine serum (FBS), 100 units/mL penicillin G and 100 μg/mL streptomycin. The proviral DNA clone of NL4-3 was obtained from the NIH AIDS Research and Reference Reagent Program. A recombinant NL4-3 virus, in which a section of the nef gene from NL4-3 was replaced with the Renilla luciferase gene, was used as a reference virus. In addition, residue Gag P373 was converted to P373S. Briefly, the recombinant virus was prepared by transfection of the altered proviral clone of NL4-3. Transfections were performed in 293T cells using LipofectAMINE PLUS from Invitrogen (Carlsbad, Calif.), according to manufacturer's instruction. The virus was titered in MT-2 cells using luciferase enzyme activity as a marker. Luciferase was quantitated using the Dual Luciferase kit from Promega (Madison, Wis.), with modifications to the manufacturer's protocol. The diluted Passive Lysis solution was pre-mixed with the re-suspended Luciferase Assay Reagent and the re-suspended Stop & Glo Substrate (2:1:1 ratio). Fifty (50) μL of the mixture was added to each aspirated well on assay plates and luciferase activity was measured immediately on a Wallac TriLux (Perkin-Elmer). Antiviral activities of inhibitors toward the recombinant virus were quantified by measuring luciferase activity in cells infected for 4-5 days with NLRluc recombinants in the presence serial dilutions of the inhibitor.
Determination of EC50 for WT, EC50 for A364V, and EC50 for 92UG029 viruses:
HIV-1 92UG029 was obtained from the NIH (Catalog Number: 1650). This is a subtype A Gag and subtype A Env, X4 (SI) virus from Uganda. Reference: WHO Network for HIV Isolation and Characterization. AIDS Res Hum Retroviruses 10:1359, 1994. The Gag/Pr region from 92UG029 was used to replace that in an HIV-1 NL4-3 virus expressing Renilla luciferase gene.
Both recombinant viruses were used as described above in the HIV cell culture assay for the NL4-3 virus.

[3] = system: WT (wild-type HIV virus; recombinant NL4-3 virus); experiment: microbe, parasite or virus in culture; assay type: cell-based, HIV-1; details: for potency vs. WT (in words): comparative data
Method in brief: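 MT-2 cells infected 4-5 days with NL4-3 carrying Renilla luciferase in place of part of nef (Gag P373S), virus made by 293T transfection, with serial inhibitor dilutions. Antiviral activity read as luciferase activity by a modified dual-luciferase read-out.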

[4] = Rat PO pharmacokinetic study; assay type: in vivo; details: male, Sprague-Dawley, plasma, oral dose of 5 mg/kg, PEG-400/ethanol (90/10) solution, fasted rats
Procedure: Rat Pharmacokinetic Studies:
For the PO pharmacokinetic studies of the compounds in rats, the compounds were each dissolved in PEG-400/ethanol (90/10) as a solution.
Rat. Male Sprague-Dawley rats (300-350 g, Hilltop Lab Animals, Inc., Scottsdale, Pa.) with cannulas implanted in the jugular vein were used. The rats were fasted overnight in the PO pharmacokinetic studies. Blood samples of 0.3 mL were collected from the jugular vein in EDTA-containing microtainer tubes (Becton Dickinson, Franklin Lakes, N.J.), and centrifuged to separate plasma.
In the PO study of the tested compounds, the rats (n=3) received an oral dose of 5 mg/kg of the indicated compound. Serial blood samples were collected before dosing and 15, 30, 45, 60, 120, 240, 360, 480, and 1440 min after dosing.
Quantitation of Compounds in Plasma. Aliquots of plasma samples from rat, studies were prepared for analysis by precipitating plasma proteins with two volumes of acetonitrile containing an internal standard of a similar compound. The resulting supernates were separated from the precipitated proteins by centrifugation for 10 minutes and transferred to autosampler vials. Samples were either prepared manually, or with the use of the Tomtec automated liquid handler. An aliquot of 5 μL was injected for analysis.
The HPLC system consisted of two Shimadzu LC10AD pumps (Columbia, Md.), a Shimadzu SIL-HTC autosampler (Columbia, Md.), and a Hewlett Packard Series 1100 column compartment (Palo Alto, Calif.). The column was a YMC Pro C18 (2.0×50 mm, 3 μm particles, Waters Co., Milford, Mass.), maintained at 60° C. and a flow rate of 0.3 ml/min. The mobile phase consisted of 10 mM ammonium formate and 0.1% formic acid in water (A) and 100% 10 mM ammonium formate and 0.1% formic acid in methanol (B). The initial mobile phase composition was 95% A. After sample injection, the mobile phase was changed to 15% A/85% B over 2 minutes and held at that composition for an additional 1 minute. The mobile phase was then returned to initial conditions and the column re-equilibrated for 1 minute. Total analysis time was 4 minutes.
The HPLC was interfaced to a Micromass Quattro LC. Ultra high purity nitrogen was used as the nebulizing and desolvation gas at flow rates of 100 L/hr for nebulization and 1100 L/hr for desolvation. The desolvation temperature was 300° C. and the source temperature was 150° C. Data acquisition utilized selected reaction monitoring (SRM). Ions representing the (M+H)^+ species for the compound and the internal standard were selected in MS1 and collisionally dissociated with argon at a pressure of 2×10^−3 torr to form specific product ions which were subsequently monitored by MS2.

[5] = Human immunodeficiency virus 1, NL43, MT2, read-out: EC50 A364V (μM), Table 2, 3× higher viral input
[6] = Human immunodeficiency virus 1, MT2, read-out: EC50 92UG029 (μM)
[7] = Human immunodeficiency virus 1, NL43, MT2, read-out: EC50 WT (μM), Table 2, 3× higher viral input
[8] = Human immunodeficiency virus 1, NL43, MT2, read-out: A364V (EC50, uM), Table 1 regular screen, class symbol
[9] = Human immunodeficiency virus 1, MT2, read-out: 92UG029A Clade T332S/V362I/V370A (EC50, uM)
[10] = Human immunodeficiency virus 1, NL43, MT2, read-out: WT (EC50, uM), Table 1 regular screen, class symbol
[11] = Human immunodeficiency virus 1, NL43, MT2, read-out: A364V (EC50, uM), Table 1 regular screen, MT-2 cells, luciferase readout
[12] = Human immunodeficiency virus 1, NL43, MT2, read-out: WT (EC50, uM), Table 1 regular screen, MT-2 cells, luciferase readout

SMILES | EC50 [1, 8] [µM] | EC50 [2, 9] [µM] | EC50 [3, 10] [µM] | EC50 [1, 11] [µM] | EC50 [3, 12] [µM] | further results
C=C(C)[C@@H]1CC[C@]2(NCCN3CCC(S(C)(=O)=O)CC3)CC[C@]3(C)[C@H](CC[C@@H]4[C@@]5(C)CC=C(C6=CCC(F)(C(=O)O)CC6)C(C)(C)[C@@H]5CC[C@]43C)[C@@H]12 (stereo partly shown) [Compound A, reference compound] |  |  |  |  |  | EC50 [1, 5]: 1.5 µM; fold less potent than Compound 2 vs A364V [1]: about 7 fold; EC50 [2, 6]: 0.61 µM; fold less potent than Compound 2 vs 92UG029 [2]: > 100 fold; EC50 [3, 7]: 0.004 µM; potency vs. WT (in words) [3]: good potency
C=C(C)[C@@H]1CC[C@]2(NCC[C@]3(O)CC[C@@H](S(C)(=O)=O)CC3)CC[C@]3(C)[C@H](CC[C@@H]4[C@@]5(C)CC=C(C6=CC[C@@](CF)(C(=O)O)CC6)C(C)(C)[C@@H]5CC[C@]43C)[C@@H]12 [Example 2-20, (R)-1-(fluoromethyl)-4-((1R,3aS,5aR,5bR,7aR,11aS,11bR,13aR,13bR)-3a-((2-((cis)-1-hydroxy-4-(methylsulfonyl)cyclohexyl)ethyl)amino)-5a,5b,8,8,11a-pentamethyl-1-(prop-1-en-2-yl)-2,3,3a,4,5,5a,5b,6,7,7a,8,11,11a,11 b,12,13,13a,13b-octadecahydro-1H-cyclopenta[a]chrysen-9-yl)cyclohex-3-enecarboxylic acid] | > 0.05 | < 0.05 | < 0.05 |  |  | 
C=C(C)[C@@H]1CC[C@]2(NCCN3CCC(S(C)(=O)=O)CC3)CC[C@]3(C)[C@H](CC[C@@H]4[C@@]5(C)CC=C(C6=CC[C@](CF)(C(=O)O)CC6)C(C)(C)[C@@H]5CC[C@]43C)[C@@H]12 [Example 1a, (S)-1-(fluoromethyl)-4-((1R,3aS,5aR,5bR,7aR,11aS,11bR,13aR,13bR)-5a,5b,8,8,11a-pentamethyl-3a-((2-(4-(methylsulfonyl)piperidin-1-yl)ethyl)amino)-1-(prop-1-en-2-yl)-2,3,3a,4,5,5a,5b,6,7,7a,8,11,11a,11b,12,13,13a,13b-octadecahydro-1H-cyclopenta[a]chrysen-9-yl)cyclohex-3-enecarboxylic acid] |  | 0.00532 |  | 0.109 | 0.00225 | 
C=C(C)[C@@H]1CC[C@]2(NCC[C@]3(O)CC[C@](C)(O)CC3)CC[C@]3(C)[C@H](CC[C@@H]4[C@@]5(C)CC=C(C6=CC[C@@](CF)(C(=O)O)CC6)C(C)(C)[C@@H]5CC[C@]43C)[C@@H]12 [Example 2-17, (R)-4-((1R,3aS,5aR,5bR,7aR,11aS,11bR,13aR,13bR)-3a-((2-((trans)-1,4-dihydroxy-4-methylcyclohexyl)ethyl)amino)-5a,5b,8,8,11a-pentamethyl-1-(prop-1-en-2-yl)-2,3,3a,4,5,5a,5b,6,7,7a,8,11,11a,11b,12,13,13a,13b-octadecahydro-1H-cyclopenta[a]chrysen-9-yl)-1-(fluoromethyl)cyclohex-3-enecarboxylic acid] | < 0.05 | 0.00937 | < 0.05 |  |  | 
C=C(C)[C@@H]1CC[C@]2(NCCN3CCS(=O)(=O)CC3)CC[C@]3(C)[C@H](CC[C@@H]4[C@@]5(C)CC=C(C6=CCC(C)(C(=O)O)CC6)C(C)(C)[C@@H]5CC[C@]43C)[C@@H]12 (stereo partly shown) [Compound B, reference compound] |  |  |  |  |  | AUC [4]: 6.46 µM·h; EC50 [1, 5]: 1.3 µM; fold less potent than Compound 2 vs A364V [1]: 6 fold; EC50 [2, 6]: 0.03 µM; fold less potent than Compound 2 vs 92UG029 [2]: 6 fold; EC50 [3, 7]: 0.002 µM; potency vs. WT (in words) [3]: comparable potency
C=C(C)[C@@H]1CC[C@]2(NCCN3CCC(S(C)(=O)=O)CC3)CC[C@]3(C)[C@H](CC[C@@H]4[C@@]5(C)CC=C(C6=CCC(CF)(C(=O)O)CC6)C(C)(C)[C@@H]5CC[C@]43C)[C@@H]12 (mixture of isomers) [Example 1, 1-(fluoromethyl)-4-((1R,3aS,5aR,5bR,7aR,11aS,11bR,13aR,13bR)-5a,5b,8,8,11a-pentamethyl-3a-((2-(4-(methylsulfonyl)piperidin-1-yl)ethyl)amino)-1-(prop-1-en-2-yl)-2,3,3a,4,5,5a,5b,6,7,7a,8,11,11a,11b,12,13,13a,13b-octadecahydro-1H-cyclopenta[a]chrysen-9-yl)cyclohex-3-enecarboxylic acid] |  | 0.00293 |  | 0.123 | 0.00175 | 
C=C(C)[C@@H]1CC[C@]2(NCCC3(O)COC3)CC[C@]3(C)[C@H](CC[C@@H]4[C@@]5(C)CC=C(C6=CC[C@@](CF)(C(=O)O)CC6)C(C)(C)[C@@H]5CC[C@]43C)[C@@H]12 [Example 2-11, (R)-1-(fluoromethyl)-4-((1R,3aS,5aR,5bR,7aR,11aS,11bR,13aR,13bR)-3a-((2-(3-hydroxyoxetan-3-yl)ethyl)amino)-5a,5b, 8,8,11a-pentamethyl-1-(prop-1-en-2-yl)-2,3,3a,4,5,5a,5b,6,7,7a,8,11,11a,11b,12,13,13a,13b-octadecahydro-1H-cyclopenta[a]chrysen-9-yl)cyclohex-3-enecarboxylic acid] | > 0.05 | 0.0153 | < 0.05 |  |  | 
C=C(C)[C@@H]1CC[C@]2(NCCN3CCC(S(C)(=O)=O)CC3)CC[C@]3(C)[C@H](CC[C@@H]4[C@@]5(C)CC=C(C6=CC[C@@](CF)(C(=O)O)CC6)C(C)(C)[C@@H]5CC[C@]43C)[C@@H]12 [Example 1b, (R)-1-(fluoromethyl)-4-((1R,3aS,5aR,5bR,7aR,11aS,11bR,13aR,13bR)-5a,5b, 8,8,11a-pentamethyl-3a-((2-(4-(methylsulfonyl)piperidin-1-yl)ethyl)amino)-1-(prop-1-en-2-yl)-2,3,3a,4,5,5a,5b,6,7,7a,8,11,11a,11 b,12,13,13a,13b-octadecahydro-1H-cyclopenta[a]chrysen-9-yl)cyclohex-3-enecarboxylic acid] |  | 0.00348 |  | 0.176 | 0.00193 | 
